Laboratory results taken from PMC3561363, “A Novel Retro-Inverso Peptide Inhibitor Reduces Amyloid Deposition, Oxidation and Inflammation and Stimulates Neurogenesis in the APPswe/PS1ΔE9 Mouse Model of Alzheimer’s Disease” (PLoS ONE, 2013).

Tests used:
Drosophila = system: Drosophila; design: method as in PMID 20559435; conditions: cited from earlier work
[1] = system: soluble Aβ and β-amyloid plaque deposits in mice; design: method as in PMID 22323736; conditions: oral administration, cited from earlier work
Aβ = system: Aβ; design: method as in 2 sources, ref 16 = [16]; PMID 20230062; doi:10.1021/bi100144m; 16 Taylor M , Moore S , Mayes J , Parkin E , Beeg M , et al ( 2010 ) Development of a proteolytically stable retro-inverso peptide inhibitor of β-amyloid oligomerization as a potential novel treatment ||| ref 5, 52 = [5]; PMID 19605645; doi:10.1523/JNEUROSCI.1071-09.2009; 5 Ma QL , Yang F , Rosario ER , Ubeda OJ , Beech W , et al ( 2009 ) β-amyloid oligomers induce phosphorylation of tau and inactivation of insulin receptor substrate via c-Jun N-terminal kinase signali || [52]; PMID 15590663; doi:10.1074/jbc.M404751200; 52 Yang F , Lim GP , Begum AN , Ubeda OJ , Simmons MR , et al ( 2005 ) Curcumin inhibits formation of amyloid β oligomers and fibrils, binds plaques, and reduces amyloid in vivo . J Biol Chem 280 : 58; conditions: cited from earlier work
[2] = design: method as in earlier work; conditions: no reference given; 53 concern derivatives; cited from earlier work
AD patients = conditions: cited from earlier work
cultured cells = system: cultured cells; design: method as in PMID 20230062; conditions: cited from earlier work
[3] = molecular target: immobilized Aβ(1–42) (Aβ42) monomers, oligomers and fibrils; design: method as in PMID 20230062; conditions: SPR; cited from earlier work
Aβ42 = assay: Thioflavin T (ThT) assay for Aβ fibrils; type: biochemical; conditions: ThT, 25 µM Aβ42, 48 h; figure title
Description: This method was the same as that published previously. Briefly, 60 µl samples of solutions containing Aβ42 (25 µM), ThT (15 µM) and between 0 and 125 µM RI-OR2 or RI-OR2–TAT, in 10 mM phosphate buffered saline (PBS), pH 7.4, were incubated in sealed, black, clear-bottomed 384-well plates (Corning). ThT fluorescence was monitored every 10 mins (λex = 442 nm, λem = 483 nm) for 48 h at 30°C in a Biotek Synergy 2 plate reader.

SHSY-5Y cells = assay: Cell penetration of fluorescein-tagged peptides, microscopy; conditions: 1 µM
APP/PS1 transgenic mice = assay: Blood brain barrier penetration and brain localisation after i.p. injection; type: in vivo, mouse; conditions: 100 nmol/kg i.p., 1 h, 17-month old APP/PS1 mice
Description: APPswe/PS1ΔE9 mice with a C57Bl/6 background (APP/PS1 mice) were obtained from the Jackson lab (http://research.jax.org/repository/alzheimers.html). […] To look at the effects of RI-OR2-TAT on mouse brain pathology (experiment 2), 8 female 10-months-old APP/PS1 mice were used. The animals were housed in single cages in a temperature controlled holding room (21.5°C±1) with 12∶12 h light and dark cycle. Food and water was available ad libitum.
The animals were then housed in a dark room. After 1 h, the animals were anaesthetised with isoflurane and sodium barbiturate (Dolethal, Bayer, Germany), transcardially perfused and the brains were retrieved and fixed in 4% ice cold paraformaldehyde.
For experiment 1 (BBB penetration), individual sections were incubated with the following primary antibodies at 4°C overnight: anti-Aβ (1∶200 dilution, Invitrogen, 71–5800), or anti-Iba 1 (1∶1000 dilution, Wako 016-20001, Germany). Sections were then stained with goat anti-rabbit Alexa Fluor 555 (1∶150 dilution, A21428 Invitrogen) for 1 h.
All sections were visualized using an Axio Scope 1 fluorescence microscope (Zeiss, Germany). For quantification, two images per section were taken from the cortex area with a 10X objective for 8-oxo guanine and β-amyloid staining, and a 100X objective for Iba1 staining, with a minimum of 5 sections visualized per animal. […]

## O=C1C=C(N[C@@H](Cc2c[nH]c3ccccc23)C(=O)O)C(=O)c2ccccc21 [NQTrp, 1,4-naphthoquinon-2-yl-L-tryptophan]
Drosophila
  phenotypic changes in Drosophila AD model: reversed phenotypic changes in Drosophila

## C=C(c1ccc(C(=O)O)cc1)c1cc2c(cc1C)C(C)(C)CCC2(C)C [bexarotene]
[1]; apoE-mediated mechanisms
  clearance of soluble Aβ: enhance clearance of soluble Aβ
[1]
  β-amyloid plaque deposits: reduce β-amyloid plaque deposits in mice

## COc1cc(/C=C/C(=O)CC(=O)/C=C/c2ccc(O)c(OC)c2)ccc1O [curcumin, reference compound]
Aβ
  inhibition of Aβ aggregation: effective inhibitor of Aβ aggregation
[2]
  bioavailability: poor bioavailability

## AN1792: pre-aggregated Aβ42, first clinical trial of immunisation
AD patients; human, in vivo
  adverse effects in first clinical trial: adverse effects involving detrimental T-cell-mediated brain inflammation

## Ac-rGffvlkGr-NH2 [RI-OR2]
Aβ
  inhibition of Aβ oligomer and fibril formation in vitro: blocks the formation of Aβ oligomers and fibrils in vitro
Cultured cells
  effect on Aβ toxicity to cultured cells: inhibits the toxic effects of Aβ on cultured cells
[3]
  Kd: 9 to 29 µM
Aβ42
  inhibition of Aβ42 aggregation (Fig. 1): inhibit the aggregation of Aβ42

## Solanezumab: Solanezumab (Eli Lilly)
AD patients; mild-to-moderate AD, ref presented at CTAD 2012
  Phase III trial outcome: did not achieve key Phase III trial goals of improved cognition and function

## fluorescein-rGffvlkGr-NH2 [Flu-RI-OR2]
SHSY-5Y cells; 1 h
  cell uptake (fluorescence localisation): remained in the culture medium

## fluorescein-rGffvlkGrrrrqrrkkrGy-NH2 [Flu-RI-OR2-TAT]
APP/PS1 transgenic mice; AlexaFluor 555 anti-Iba 1
  localisation relative to activated microglia: found inside activated microglial cells
APP/PS1 transgenic mice; cerebral cortex, AlexaFluor 555 anti-Aβ
  localisation relative to amyloid plaques: co-localised with amyloid plaques
SHSY-5Y cells; 10 mins
  cell uptake (fluorescence localisation): build up of fluorescence inside the cells
